Tests used:
[1] = target: DOR (Homo sapiens, UniProt P41143); test: DOR-Tango β-arrestin2 recruitment, dose–response; format: cell-based; settings: for reversal of the agonist activity of EIPA: 10 μM EIPA, increasing antagonist; for agonist / allosteric activity at DOR: 10 μM modulator, in the presence or absence of DADLE; for effect of extracellular Na+ on agonistic activity: reducing extracellular Na+ to 30 mM
[2] = system: different GPCRs; settings: cited from earlier work
[3] = target: DOR D95A2.50 (Homo sapiens, UniProt P41143, D95A); test: Mutant DOR-Tango β-arrestin2 recruitment; format: cell-based; settings: 10 μM modulator
Sequence of DOR D95A2.50 (P41143 whole entry D95A): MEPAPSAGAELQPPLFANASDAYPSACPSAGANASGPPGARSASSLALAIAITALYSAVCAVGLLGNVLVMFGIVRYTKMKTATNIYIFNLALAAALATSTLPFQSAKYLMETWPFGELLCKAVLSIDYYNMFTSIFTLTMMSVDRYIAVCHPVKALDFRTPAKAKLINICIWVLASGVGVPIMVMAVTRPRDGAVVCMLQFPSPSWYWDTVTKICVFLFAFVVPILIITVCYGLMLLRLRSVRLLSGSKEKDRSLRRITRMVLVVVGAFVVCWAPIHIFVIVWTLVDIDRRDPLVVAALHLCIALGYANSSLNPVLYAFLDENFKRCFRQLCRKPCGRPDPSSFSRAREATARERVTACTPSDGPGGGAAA

[4] = system: gonadotropin-releasing hormone receptor (GnRHR); settings: 10 μM; cited from earlier work
[5] = target: DOR chimera KOR-TM1 (Homo sapiens, UniProt P41143+P41145, A58V/A61V/C60F/G73V/L55V/L65V/V68S/V75I); test: Chimera DOR-Tango β-arrestin2 recruitment; format: cell-based; settings: 10 μM modulator
[6] = target: DOR WT (Homo sapiens, UniProt P41143); test: 3H-DADLE competition binding; settings: binding experiment in allosteric mode
Sequence of DOR WT (P41143 whole entry): as the sequence (P41143 whole entry D95A) above, with A95D counted along it

[7] = system: kappa-opioid receptor; settings: ref Tracey et al.[45]; cited from earlier work
[8] = system: cells; test: Toxicity to cells; format: cell-based, human; settings: at 10 μM
[9] = target: DOR S135A3.39 (Homo sapiens, UniProt P41143, S135A); test: Mutant DOR-Tango β-arrestin2 recruitment; format: cell-based; settings: 10 μM
Sequence of DOR S135A3.39 (P41143 whole entry S135A, one chain of several): as the sequence (P41143 whole entry D95A) above, with A95D, S135A counted along it

[10] = target: DOR N131V3.35 (Homo sapiens, UniProt P41143, N131V); test: Mutant DOR-Tango β-arrestin2 recruitment; format: cell-based; settings: 10 μM
Sequence of DOR N131V3.35 (P41143 whole entry N131V, one chain of several): as the sequence (P41143 whole entry D95A) above, with A95D, N131V counted along it

[11] = system: mouse delta-opioid; settings: ref Tracey et al.[45]; cited from earlier work
[12] = system: rat mu-opioid; settings: ref Tracey et al.[45]; cited from earlier work
[13] = target: T1, M4 muscarinic receptor (Homo sapiens, UniProt P08173); test: M4-Tango β-arrestin2 recruitment, carbachol dose–response; format: cell-based; settings: external Na+ increased to 200 mM
T1 sequence (P08173 1-479): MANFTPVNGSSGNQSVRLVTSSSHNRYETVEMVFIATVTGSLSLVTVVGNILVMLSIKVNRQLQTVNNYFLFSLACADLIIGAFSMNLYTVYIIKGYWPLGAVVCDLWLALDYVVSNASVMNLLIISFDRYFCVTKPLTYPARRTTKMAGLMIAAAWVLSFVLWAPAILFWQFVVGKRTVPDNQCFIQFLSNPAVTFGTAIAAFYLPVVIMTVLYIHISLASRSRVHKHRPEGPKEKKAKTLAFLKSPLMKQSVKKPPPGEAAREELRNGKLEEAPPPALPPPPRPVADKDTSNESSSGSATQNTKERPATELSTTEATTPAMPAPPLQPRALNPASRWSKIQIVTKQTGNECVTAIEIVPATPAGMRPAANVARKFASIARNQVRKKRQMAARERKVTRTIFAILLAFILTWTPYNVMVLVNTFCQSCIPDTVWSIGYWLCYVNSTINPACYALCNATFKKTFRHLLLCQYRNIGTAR

[14] = target: T2, M5 muscarinic receptor (Homo sapiens, UniProt P08912); test: M5-Tango β-arrestin2 recruitment, carbachol dose–response; format: cell-based; settings: external Na+ increased to 200 mM
T2 sequence (P08912 1-532): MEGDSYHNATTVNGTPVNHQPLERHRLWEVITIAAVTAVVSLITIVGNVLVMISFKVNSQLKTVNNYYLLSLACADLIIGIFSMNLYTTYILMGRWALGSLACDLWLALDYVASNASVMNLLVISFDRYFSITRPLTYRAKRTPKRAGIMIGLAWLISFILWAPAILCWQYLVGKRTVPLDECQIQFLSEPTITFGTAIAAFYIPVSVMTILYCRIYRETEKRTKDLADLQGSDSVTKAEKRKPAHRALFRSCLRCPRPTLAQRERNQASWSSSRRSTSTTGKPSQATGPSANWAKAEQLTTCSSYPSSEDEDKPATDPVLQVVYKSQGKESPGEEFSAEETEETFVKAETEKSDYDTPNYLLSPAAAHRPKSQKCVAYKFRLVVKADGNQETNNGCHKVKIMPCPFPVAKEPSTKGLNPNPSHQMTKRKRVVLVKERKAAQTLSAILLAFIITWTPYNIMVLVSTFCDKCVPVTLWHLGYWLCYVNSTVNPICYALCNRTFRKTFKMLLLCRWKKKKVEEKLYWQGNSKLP

[15] = target: T3, M2 muscarinic receptor (Homo sapiens, UniProt P08172); test: M2-Tango β-arrestin2 recruitment, carbachol dose–response; format: cell-based; settings: external Na+ increased to 200 mM
T3 sequence (P08172 1-466): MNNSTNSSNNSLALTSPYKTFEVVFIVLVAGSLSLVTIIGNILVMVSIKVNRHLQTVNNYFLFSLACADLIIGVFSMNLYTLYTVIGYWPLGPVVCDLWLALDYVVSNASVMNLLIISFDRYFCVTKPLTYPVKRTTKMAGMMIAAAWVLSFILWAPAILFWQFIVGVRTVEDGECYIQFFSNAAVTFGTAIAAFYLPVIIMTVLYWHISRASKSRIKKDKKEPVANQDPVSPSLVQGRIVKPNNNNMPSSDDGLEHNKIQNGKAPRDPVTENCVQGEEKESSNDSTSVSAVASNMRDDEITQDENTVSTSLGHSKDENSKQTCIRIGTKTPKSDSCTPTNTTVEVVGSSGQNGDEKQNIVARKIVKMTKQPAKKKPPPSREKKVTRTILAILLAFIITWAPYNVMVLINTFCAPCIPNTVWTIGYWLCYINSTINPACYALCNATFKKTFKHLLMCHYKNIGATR

Sequence of DOR (P41143 whole entry): as the sequence (P41143 whole entry D95A) above, with A95D counted along it

SMILES: NC(N)=Nc1ccc2[nH]c3c(c2c1)C[C@@]1(O)[C@H]2Cc4ccc(O)c5c4[C@@]1(CCN2CC1CC1)[C@H]3O5 [5′-GNTI]
- reversal of the agonist activity of EIPA [1]: reversed

SMILES: NC(N)=Nc1ccc2c3c([nH]c2c1)[C@@H]1Oc2c(O)ccc4c2[C@@]12CCN(CC1CC1)[C@H](C4)[C@]2(O)C3 [6′-GNTI]
- reversal of the agonist activity of EIPA [1]: reversed

SMILES: N=C(N)NC(=O)c1nc(Cl)c(N)nc1N [Amiloride, amiloride]
- affinity ([2]; allosteric modulation on different GPCRs): > 10 µM
- concentration with activity in biophysical studies ([2]; most biophysical studies using amiloride): > 100 µM
- agonist / allosteric activity at DOR [1]: no activity

SMILES: CN(C)c1nc(N)c(C(=O)NC(=N)N)nc1Cl [DMA, 5-(N,N-dimethyl)amiloride]
- agonist / allosteric activity at DOR [1]: lack of DMA activity

SMILES: CCN(c1nc(N)c(C(=O)N=C(N)N)nc1Cl)C(C)C [EIPA, 5-(N-ethyl-N-isopropyl)-amiloride]
- agonist / allosteric activity at DOR [1]: significant agonist and positive allosteric modulation (ago-PAM)

SMILES: NC(N)=NC(=O)c1nc(Cl)c(N2CCCCCC2)nc1N [HMA, 5-(N,N-hexamethylene)amiloride]
- effect of extracellular Na+ on agonistic activity [1]: slightly increases
- modulator properties at mutant [3]: almost complete loss of original properties
- functional effect [4]: modest effect
- allosteric modulation (PAM) at chimera [5]: loss of allosteric modulation (PAM)

SMILES: CC(C)CN(C)c1nc(N)c(C(=O)N=C(N)N)nc1Cl [MIA, 5-(N-methyl-N-isobutyl)amiloride]
- agonist / allosteric activity at DOR [1]: best ago-PAM
- effect of extracellular Na+ on agonistic activity [1]: slightly increases
- effect on the Ki of naltrindole toward 3H-DADLE [6]: no effect
- modulator properties at mutant [3]: almost complete loss of original properties
- allosteric modulation (PAM) at chimera [5]: loss of allosteric modulation (PAM)

SMILES: Oc1ccc2c3c1O[C@H]1c4[nH]c5ccccc5c4C[C@@]4(O)[C@@H](C2)N(CC2CC2)CC[C@]314 [Naltrindole, naltrindole]
- reversal of the agonist activity of EIPA [1]: reversed

SMILES: NC(=Nc1ccccc1)NC(=O)c1nc(Cl)c(N)nc1N [Phenamil, phenamil]
- agonist / allosteric activity at DOR [1]: inactive

SMILES: N=C(N)NC(=O)c1cnn(-c2cccc3ncccc23)c1C1CC1 [Zoniporide, zoniporide]
- interaction [7]: no detectable interaction
- toxicity [8]: no toxicity
- ago-PAM properties at mutant [9]: increase in the ago-PAM properties
- agonist / allosteric activity at DOR [1]: best PAM without intrinsic agonist activity
- ago-PAM properties at mutant [10]: increase in the ago-PAM properties
- affinity [11]: 238 nM
- modulator properties at mutant [3]: almost complete loss of original properties
- affinity [12]: 60 nM
- allosteric modulation (PAM) at chimera [5]: loss of allosteric modulation (PAM)

SMILES: C[N+](C)(C)CCOC(N)=O [carbachol]
- increase of efficacy [13]: more than 3 fold
- increase of efficacy [14]: weakly increasing efficacy
- increase of efficacy [15]: more than 3 fold
